In the NIST ThermoML archive (doi:10.1021/acs.jced.5b01031):
“And” between values parts separate entries of the source, which are not always exact repeats. Equal values may be shown once. Numbers after ± are expanded uncertainties.

Assay: mn = molality of the nth substance listed, in mol/kg
Conditions: 81.5 kPa, Liquid; for mass density: Vibrating tube method; for viscosity: Capillary tube (Ostwald / Ubbelohde) method

NCC(=O)O [2-aminoacetic acid] + O
mass density [kg/m3]
Conditions | m1 = 0.1001 | m1 = 0.1498 | m1 = 0.1998 | m1 = 0.2497 | m1 = 0.2999 | m1 = 0.3502 | m1 = 0.4005 | m1 = 0.45 | m1 = 0.4993
303.15 K | 998.79 ± 0.3 | 1000.34 ± 0.3 | 1001.88 ± 0.3 | 1003.42 ± 0.3 | 1004.95 ± 0.3 | 1006.44 ± 0.3 | 1007.94 ± 0.3 | 1009.44 ± 0.3 | 1010.87 ± 0.3
308.15 K | 997.12 ± 0.3 | – | 1000.16 ± 0.3 | 1001.68 ± 0.3 | 1003.19 ± 0.3 | 1004.66 ± 0.3 | 1006.15 ± 0.3 | 1007.62 ± 0.3 | 1009.05 ± 0.3
313.15 K | 995.14 ± 0.3 | 996.61 ± 0.3 | 998.06 ± 0.3 | 999.5 ± 0.3 | 1000.94 ± 0.3 | 1002.34 ± 0.3 | 1003.74 ± 0.3 | 1005.12 ± 0.3 | 1006.46 ± 0.3

C[C@H](N)C(=O)O [(S)-2-aminopropanoic acid] + O
mass density [kg/m3]
Conditions | m1 = 0.1001 | m1 = 0.1501 | m1 = 0.1998 | m1 = 0.2502 | m1 = 0.3 | m1 = 0.3501 | m1 = 0.3986 | m1 = 0.4493 | m1 = 0.4994
303.15 K | 998.46 ± 0.3 | 999.85 ± 0.3 | 1001.23 ± 0.3 | 1002.6 ± 0.3 | 1003.96 ± 0.3 | 1005.32 ± 0.3 | 1006.62 ± 0.3 | 1007.97 ± 0.3 | 1009.28 ± 0.3
308.15 K | 996.83 ± 0.3 | 998.21 ± 0.3 | 999.58 ± 0.3 | 1000.94 ± 0.3 | 1002.29 ± 0.3 | 1003.64 ± 0.3 | 1004.93 ± 0.3 | 1006.27 ± 0.3 | 1007.56 ± 0.3
313.15 K | 995 ± 0.3 | 996.39 ± 0.3 | 997.76 ± 0.3 | 999.11 ± 0.3 | 1000.45 ± 0.3 | 1001.77 ± 0.3 | 1003.07 ± 0.3 | 1004.36 ± 0.3 | 1005.62 ± 0.3

CC(C)[C@H](N)C(=O)O [L-valine] + O
mass density [kg/m3]
Conditions | m1 = 0.1004 | m1 = 0.1489 | m1 = 0.1996 | m1 = 0.2497 | m1 = 0.3001 | m1 = 0.3488 | m1 = 0.3995 | m1 = 0.4501 | m1 = 0.4989
303.15 K | 998.27 ± 0.3 | 999.57 ± 0.3 | 1000.84 ± 0.3 | 1002.1 ± 0.3 | 1003.33 ± 0.3 | 1004.55 ± 0.3 | 1005.74 ± 0.3 | 1006.93 ± 0.3 | 1008.09 ± 0.3
308.15 K | 996.63 ± 0.3 | 997.9 ± 0.3 | 999.16 ± 0.3 | 1000.41 ± 0.3 | 1001.63 ± 0.3 | 1002.84 ± 0.3 | 1004.02 ± 0.3 | 1005.2 ± 0.3 | 1006.34 ± 0.3
313.15 K | 994.92 ± 0.3 | 996.25 ± 0.3 | 997.55 ± 0.3 | 998.83 ± 0.3 | 1000.05 ± 0.3 | 1001.27 ± 0.3 | 1002.46 ± 0.3 | 1003.61 ± 0.3 | 1004.75 ± 0.3

O=C([O-])c1ccccc1.[Na+] [sodium benzoate] + O
Conditions | mass density, 303.15 K | mass density, 308.15 K | mass density, 313.15 K | viscosity, 303.15 K | viscosity, 308.15 K | viscosity, 313.15 K
m1 = 0.1011 | 1001.3 ± 0.3 kg/m3 and 1001.31 ± 0.3 kg/m3 | 999.49 ± 0.3 kg/m3 and 999.34 ± 0.3 kg/m3 and 999.62 ± 0.3 kg/m3 | 997.41 ± 0.3 kg/m3 and 997.51 ± 0.3 kg/m3 | 0.845 ± 0.08 mPa·s and 0.84 ± 0.08 mPa·s | 0.757 ± 0.08 mPa·s and 0.758 ± 0.08 mPa·s | 0.686 ± 0.08 mPa·s and 0.691 ± 0.08 mPa·s
m1 = 0.3088 | 1012.46 ± 0.3 kg/m3 and 1012.49 ± 0.3 kg/m3 | 1010.59 ± 0.3 kg/m3 and 1010.54 ± 0.3 kg/m3 and 1010.6 ± 0.3 kg/m3 | 1008.16 ± 0.3 kg/m3 and 1008.27 ± 0.3 kg/m3 and 1008.53 ± 0.3 kg/m3 | 0.92 ± 0.08 mPa·s and 0.926 ± 0.08 mPa·s and 0.931 ± 0.08 mPa·s | 0.821 ± 0.08 mPa·s and 0.837 ± 0.08 mPa·s | 0.748 ± 0.08 mPa·s and 0.753 ± 0.08 mPa·s
m1 = 0.5245 | 1023.61 ± 0.3 kg/m3 and 1023.59 ± 0.3 kg/m3 and 1023.51 ± 0.3 kg/m3 | 1021.52 ± 0.3 kg/m3 and 1021.61 ± 0.3 kg/m3 and 1021.49 ± 0.3 kg/m3 | 1019.94 ± 0.3 kg/m3 | 1.024 ± 0.08 mPa·s and 1.013 ± 0.08 mPa·s and 1.019 ± 0.08 mPa·s | 0.918 ± 0.08 mPa·s and 0.912 ± 0.08 mPa·s | 0.806 ± 0.08 mPa·s and 0.812 ± 0.08 mPa·s and 0.817 ± 0.08 mPa·s
